Test results reported in PubChem BioAssay AID2060621 (Molecular Pharmacology Branch, DTP, NCI, 2025).

System: 324938-238-R-J1-PDC complex spheroids viability
Assay: Anticancer human tumor 324938-238-R-J1-PDC patient-derived bladder carcinoma cell line growth inhibition [CLK]
Conditions: for IC50: curve of first compound; for viability, T/C: stronger effect = lower value
Outline: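 Multi-cell-type spheroids combined patient-derived tumor cells with HUVEC endothelial cells and human mesenchymal stem cells. Paired agents were dosed in half-log steps down from about clinical Cmax, or from 10 microM where Cmax was unknown.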

[1] = second compound 0.0316 µM, first compound 0.0316 µM
[2] = second compound 0.0316 µM, first compound 0.1 µM
[3] = second compound 0.0316 µM, first compound 0.316 µM
[4] = second compound 0.0316 µM, first compound 1 µM
[5] = second compound 0.0316 µM, first compound 3.16 µM
[6] = second compound 0.0316 µM, first compound 10 µM
[7] = second compound 0.1 µM, first compound 0.0316 µM
[8] = second compound 0.1 µM, first compound 0.1 µM
[9] = second compound 0.1 µM, first compound 0.316 µM
[10] = second compound 0.1 µM, first compound 1 µM
[11] = second compound 0.1 µM, first compound 3.16 µM
[12] = second compound 0.1 µM, first compound 10 µM
[13] = second compound 0.316 µM, first compound 0.0316 µM
[14] = second compound 0.316 µM, first compound 0.1 µM
[15] = second compound 0.316 µM, first compound 0.316 µM
[16] = second compound 0.316 µM, first compound 1 µM
[17] = second compound 0.316 µM, first compound 3.16 µM
[18] = second compound 0.316 µM, first compound 10 µM
[19] = second compound 1 µM, first compound 0.0316 µM
[20] = second compound 1 µM, first compound 0.1 µM
[21] = second compound 1 µM, first compound 0.316 µM
[22] = second compound 1 µM, first compound 1 µM
[23] = second compound 1 µM, first compound 3.16 µM
[24] = second compound 1 µM, first compound 10 µM
[25] = second compound 3.16 µM, first compound 0.0316 µM
[26] = second compound 3.16 µM, first compound 0.1 µM
[27] = second compound 3.16 µM, first compound 0.316 µM
[28] = second compound 3.16 µM, first compound 1 µM
[29] = second compound 3.16 µM, first compound 3.16 µM
[30] = second compound 3.16 µM, first compound 10 µM
[31] = second compound 10 µM, first compound 0.0316 µM
[32] = second compound 10 µM, first compound 0.1 µM
[33] = second compound 10 µM, first compound 0.316 µM
[34] = second compound 10 µM, first compound 1 µM
[35] = second compound 10 µM, first compound 3.16 µM
[36] = second compound 10 µM, first compound 10 µM
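Note: viability read after seven days of drug exposure.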
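Throughout, for viability, T/C: 100% = DMSO vehicle control wells.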

Nc1ccn(C2OC(CO)C(O)C2(F)F)c(=O)n1 (centres undefined) + CN1CCN(c2cc(C(=O)Nc3cc4cc(-c5cnn(C)c5)ccc4cn3)ccn2)CC1
IC50 (second compound 0.0316 µM): < 0.0316 µM | IC50 (second compound 0.1 µM): < 0.0316 µM | IC50 (second compound 0.316 µM): < 0.0316 µM | IC50 (second compound 1 µM): < 0.0316 µM | IC50 (second compound 3.16 µM): < 0.0316 µM | IC50 (second compound 10 µM): < 0.0316 µM | viability, T/C [1]: 31.4% | viability, T/C [2]: 16.4% | viability, T/C [3]: 11.3% | viability, T/C [4]: 11.3% | viability, T/C [5]: 6.96% | viability, T/C [6]: 6.17% | viability, T/C [7]: 25.3% | viability, T/C [8]: 14.2% | viability, T/C [9]: 11.5% | viability, T/C [10]: 10.8% | viability, T/C [11]: 5.43% | viability, T/C [12]: 4.89% | viability, T/C [13]: 18.9% | viability, T/C [14]: 12.7% | viability, T/C [15]: 10.2% | viability, T/C [16]: 8.86% | viability, T/C [17]: 5.88% | viability, T/C [18]: 1.97% | viability, T/C [19]: 0.83% | viability, T/C [20]: 0.6% | viability, T/C [21]: 0.57% | viability, T/C [22]: 0.45% | viability, T/C [23]: 0.37% | viability, T/C [24]: 0.22% | viability, T/C [25]: 0.13% | viability, T/C [26]: 0.16% | viability, T/C [27]: 0.15% | viability, T/C [28]: 0.12% | viability, T/C [29]: 0.14% | viability, T/C [30]: 0.19% | viability, T/C [31]: 0.11% | viability, T/C [32]: 0.12% | viability, T/C [33]: 0.19% | viability, T/C [34]: 0.12% | viability, T/C [35]: 0.17% | viability, T/C [36]: 0.16%

O=C(c1cc(Cc2n[nH]c(=O)c3ccccc23)ccc1F)N1CCN(C(=O)C2CC2)CC1 + CN1CCN(c2cc(C(=O)Nc3cc4cc(-c5cnn(C)c5)ccc4cn3)ccn2)CC1
IC50 (second compound 0.0316 µM): 4.05 µM | IC50 (second compound 0.1 µM): < 0.0316 µM | IC50 (second compound 0.316 µM): < 0.0316 µM | IC50 (second compound 1 µM): < 0.0316 µM | IC50 (second compound 3.16 µM): < 0.0316 µM | IC50 (second compound 10 µM): < 0.0316 µM | viability, T/C [1]: 76.9% | viability, T/C [2]: 76.8% | viability, T/C [3]: 65.2% | viability, T/C [4]: 70.5% | viability, T/C [5]: 55.5% | viability, T/C [6]: 29.6% | viability, T/C [7]: 46.9% | viability, T/C [8]: 50.8% | viability, T/C [9]: 42.5% | viability, T/C [10]: 49.2% | viability, T/C [11]: 36.4% | viability, T/C [12]: 19.4% | viability, T/C [13]: 20.6% | viability, T/C [14]: 24.1% | viability, T/C [15]: 19.9% | viability, T/C [16]: 19.9% | viability, T/C [17]: 18.9% | viability, T/C [18]: 16.4% | viability, T/C [19]: 1.69% | viability, T/C [20]: 1.71% | viability, T/C [21]: 1.98% | viability, T/C [22]: 1.94% | viability, T/C [23]: 2.27% | viability, T/C [24]: 1.74% | viability, T/C [25]: 0.26% | viability, T/C [26]: 0.21% | viability, T/C [27]: 0.25% | viability, T/C [28]: 0.1% | viability, T/C [29]: 0.36% | viability, T/C [30]: 0.49% | viability, T/C [31]: 0.11% | viability, T/C [32]: 0.21% | viability, T/C [33]: 0.24% | viability, T/C [34]: 0.17% | viability, T/C [35]: 0.26% | viability, T/C [36]: 0.28%
